Measured values from patent US20070078263A1, “BIARYL SUBSTITUTED HETEROCYCLE INHIBITORS OF LTA4H FOR TREATING INFLAMMATION” (deCODE Chemistry, Inc., priority 2005, published 2007).
Structures can show the parent of a compound that is named as a salt.

Molecular target: T1, human LTA4 hydrolase (Homo sapiens, UniProt P09960)
T1 construct: A human LTA4 hydrolase full-length cDNA clone (NM 000895) was purchased; His tag (6xHis of vector pDEST17); made in house; host or cells: Escherichia coli BL21-AI
T1 sequence (P09960 1-611): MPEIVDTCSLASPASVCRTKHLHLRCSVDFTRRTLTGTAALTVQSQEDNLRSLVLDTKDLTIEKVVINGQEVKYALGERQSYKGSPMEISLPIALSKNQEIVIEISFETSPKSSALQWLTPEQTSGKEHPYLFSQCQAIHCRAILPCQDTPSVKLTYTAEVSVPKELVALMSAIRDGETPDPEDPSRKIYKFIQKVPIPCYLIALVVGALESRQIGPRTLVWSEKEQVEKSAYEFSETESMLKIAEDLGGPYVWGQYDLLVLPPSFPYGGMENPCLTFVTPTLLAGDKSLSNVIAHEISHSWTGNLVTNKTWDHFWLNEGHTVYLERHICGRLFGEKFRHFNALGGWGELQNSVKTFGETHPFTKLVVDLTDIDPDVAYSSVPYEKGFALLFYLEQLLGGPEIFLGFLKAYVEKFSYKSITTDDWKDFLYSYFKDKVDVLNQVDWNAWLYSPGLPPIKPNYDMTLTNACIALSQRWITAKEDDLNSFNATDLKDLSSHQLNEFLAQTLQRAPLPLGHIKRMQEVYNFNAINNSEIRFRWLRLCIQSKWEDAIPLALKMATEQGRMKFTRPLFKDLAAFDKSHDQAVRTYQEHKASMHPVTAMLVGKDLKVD
Experiment: In vitro assay testing inhibitory activity against purified recombinant human LTA4 hydrolase (LTB4 formed, LC-MS/MS);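 also: 200 nM enzyme preincubated 10 min at room temperature with serial inhibitor dilutions in pH 8.0 Tris buffer with BSA and 10% DMSO, then 2 µM LTA4 added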
Assay type: biochemical
Settings: recombinant human LTA4 hydrolase 200 nM, LTA4 2 μM; read-out: AvgIC50
Text: (1) In vitro assay testing inhibitory activity against purified recombinant human LTA4 hydroase. […] The gene was amplified by polymerase chain reaction and transferred via pDONR201 into the bacterial expression vector pDEST17 by recombination (both plasmids from Invitrogen, Carlsbad, Calif.). The resulting construct was transformed into Escherichia coli BL21-AI (Invitrogen), and expression was induced by chemical induction with arabinose. The recombinant enzyme was purified by chromatography on an FPLC system (Amersham Biosciences, Uppsala, Sweden) using immobilized metal affinity chromatography (Ni-NTA Superflow, Qiagen, Hilden, Germany) and anion exchange chromatography (MonoQ HR 10/10, Amersham Biosciences).
The compounds of the invention were incubated in a series of dilutions with 200 nM of recombinant enzyme in assay buffer (100 mM Tris-HCl, 100 mM NaCl, 5 mg/ml fatty-acid free BSA, 10% DMSO, pH 8.0) for 10 min at room temperature to allow binding between LTA4 hydrolase and the inhibitors. LTA4 was prepared by alkaline hydrolysis of LTA4 methyl ester (Biomol, Plymouth Meeting, Pa., or Cayman Chemicals, Ann Arbor, Mich.). A solution of 10 μg of the ester was dried under a nitrogen stream and redissolved in 60 μl of a solution of 80% acetone and 20% 0.25 M NaOH. After incubation for 40 min at room temperature the resulting approximately 500 μM tock of LTA4 was kept at −80° C. for no more than a few days prior to use.
Immediately before the assay, LTA4 was diluted to a concentration of 10 μM in assay buffer (without DMSO) and added to the reaction mixture to a final concentration of 2 μM to initiate the enzyme reaction. […] The samples were then kept at 4° C. overnight to complete protein precipitation and centrifuged for 15 min at 1800 g.

Structure (SMILES) | IC50
O=C(O)CCN1CCCC[C@H]1COc1ccc(Oc2ccc(Cl)cc2)cc1 [Example 59, 3-{(S)-2-[4-(4-Chloro-phenoxy)-phenoxymethyl]-piperidin-1-yl}-propionic acid hydrochloride] | < 5 µM
OC(c1ccc(OC[C@H]2CCCN2)cc1)c1ccc(-c2ccsc2)cc1 (stereo partly drawn) [Example 129, [4-((R)-1-Pyrrolidin-2-ylmethoxy)-phenyl]-(4-thiophen-3-yl-phenyl)-methanol] | 5 to 20 µM
O[C@H]1CN[C@H](COc2ccc(Oc3ccccc3)cc2)C1 [Example 86, (3R,5S)-5-(4-Phenoxy-phenoxymethyl)-pyrrolidin-3-ol] | < 5 µM
c1ccc(CN2CCNC(COc3ccc(Oc4ccccc4)cc3)C2)cc1 (stereo not shown) [Example 75, dihydrochloride] | < 5 µM
c1csc(-c2ccc(Cc3ccc(OC[C@H]4CCCN4)cc3)cc2)n1 [Example 149, 2-{4-[4-((R)-1-Pyrrolidin-2-ylmethoxy)-benzyl]-phenyl}-thiazole hydrochloride salt] | < 5 µM
c1ccc(Nc2ccc(OC[C@H]3CCCN3)cc2)cc1 [Example 44, Phenyl-[4-((R)-1-pyrrolidin-2-ylmethoxy)-phenyl]-amine] | < 5 µM
O=C(O)CN1CCC[C@@H]1COc1ccc(Oc2ccc(C(F)(F)F)cc2)cc1 [Example 28, (R)-2-[4-(4-trifluoromethyl-phenoxy)-phenoxymethyl]-pyrrolidine-1-yl)acetic acid sodium salt] | < 5 µM
c1ccc(-c2ccc(Cc3ccc(OC[C@@H]4CCCN4)cc3)s2)cc1 [Example 161, (S)-2-[4-(5-Phenyl-thiophen-2-ylmethyl)-phenoxymethyl]-pyrrolidine hydrochloride salt] | < 5 µM
c1csc(-c2ccc(Oc3ccc(OC[C@H]4CCCN4)cc3)cc2)c1 [Example 131, (R)-2-[4-(4-Thiophen-2-yl-phenoxy)-phenoxymethyl]-pyrrolidine-1-hydrogen chloride salt] | 5 to 20 µM
Fc1ccc(COc2ccc(OC[C@H]3CCCN3)cc2)cc1F [Example 93, (R)-2-[4-(3,4-Difluoro-benzyloxy)-phenoxymethyl]-pyrrolidine Hydrogen chloride salt] | < 5 µM
Cc1ccc(Oc2ccc(OC[C@@H]3CCCN3)cc2)cc1 [compound 37] | < 5 µM
CC(=O)c1ccc(Oc2ccc(OC[C@H]3CCCN3)cc2)cc1 [Example 17, 1-{4-[4-((R)-1-Pyrrolidin-2-ylmethoxy)-phenoxy]-phenyl}-ethanone hydrochloride] | < 5 µM
Fc1ccc(COc2ccc(OC[C@H]3CCCN3)cc2)cc1 [Example 92, (R)-2-[4-(4-Fluoro-benzyloxy)-phenoxymethyl]-pyrrolidine Hydrogen chloride salt] | < 5 µM
Clc1ccc(Cc2ccc(OCC3CCCCN3)cc2)cc1 (stereo in doubt) [Example 166, (R)-2-[4-(4-Chlorobenzyl)-phenoxymethyl]-piperidine hydrochloride] | < 5 µM
c1ccc2[nH]c(Oc3ccc(OC[C@H]4CCCN4)cc3)nc2c1 [Example 103, 2-[4-((R)-1-Pyrrolidin-2-ylmethoxy)-phenoxy]-1H-benzoimidazole Hydrogen chloride salt] | < 5 µM
c1csc(-c2ccc(Cc3ccc(OC[C@@H]4CCCN4)cc3)cc2)n1 [Example 150, 2-{4-[4-((S)-1-Pyrrolidin-2-ylmethoxy)-benzyl]-phenyl}-thiazole hydrochloride salt] | < 5 µM
Clc1ccc(COc2ccc(OC[C@H]3CCCN3)cc2)cc1 [Example 94, (R)-2-[4-(4-Chloro-benzyloxy)-phenoxymethyl]-pyrrolidine Hydrogen chloride salt] | < 5 µM
COc1cccc(COc2ccc(OC[C@H]3CCCN3)cc2)c1 [Example 97, (R)-2-[4-(3-Methoxy-benzyloxy)-phenoxymethyl]-pyrrolidine Hydrogen chloride salt] | 20 to 100 µM
c1ccc(Cc2ccc(-c3ccc(OC[C@@H]4CCCN4)cc3)s2)cc1 [Example 172, (S)-2-[4-(5-Benzyl-thiophen-2-yl)-phenoxymethyl]-pyrrolidine] | < 5 µM
